Patent US8415312B2, “Compound which is a nystatin derivative” (Biosergen AS, priority 2007, dated 2013)
In brackets after ≈: the same amount, converted by molar mass. Several values for one entry are separate records, joined by “and”; a condition that tells them apart may be missing. Equal entries are not always repeated.

How the values were obtained:
[1] = tested on: Aspergillus niger ATCC 16404; assay: Antifungal susceptibility study (1), broth microdilution MIC; format: cell-based; settings: lowest concentration preventing any visible growth, read at 48 hours, 35° C., RPMI 1640 pH 7.0
Summary of the method: (§1)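 Broth microdilution was run at pH 7.0 with compounds diluted from DMSO solutions and mixed 1:1 with conidial inoculum. Spore suspensions were adjusted to OD530 0.09-0.11 for A. niger or 0.15-0.17 for F. oxysporum, then diluted 1:50. Plates were incubated at 35° C without agitation, and MIC was read at 48 hours as absence of visible growth.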

[2] = tested on: Fusarium oxysporum VKM F-140; assay: as above; format: cell-based; settings: lowest concentration preventing any visible growth, read at 48 hours, 35° C., RPMI 1640 pH 7.0
Summary of the method: as §1

[3] = tested on: Candida albicans ATCC 10231; assay: Antifungal susceptibility study (2), MIC50 by OD490 growth; format: cell-based; settings: 50% growth inhibition from regression curve, M19 medium without NaCl, 30° C.
Protocol: The anti-fungal activity of several of the nystatin derivatives was further investigated. […] The anti-fungal activity of a number of the nystatin derivatives was therefore determined in a method which is designed to be more sensitive.
The test organism used for the further testing of polyene macrolide bioactivity was Candida albicans ATCC 10231, grown in 120 μl of standard M19 medium without NaCl (with an inoculum of 1000 cfu per well) and 30 μl of diluted polyene macrolide samples. The antibiotics were diluted in MeOH in series ensuring a spectrum of concentrations which yielded results ranging from complete growth inhibition to no inhibition of the test organism. The test organism cultures with antibiotic dilutions were incubated in 96-well microtiter plates at 30° C. without shaking, and growth was measured as OD490 after 12, 14 and 16 hours on a SpectraMax Plus microtiter plate reader. OD was plotted against antibiotic concentration, and MIC50 was estimated from the regression curve at 50% growth inhibition.

human blood erythrocytes = assay: In vitro toxicity study, haemolysis (Table 10); format: cell-based; settings: for Haemolysis of human blood erythrocytes: individual blood samples # 1-3, listed as Amp B
erythrocytes = assay: In vitro toxicity study, haemolysis (Tables 11 and 12); format: cell-based, horse; settings: for Haemolysis of erythrocytes, Mean ± SE: 5 μg/mL (Table 11); for Haemolysis of erythrocytes: 5 μg/mL, individual blood samples # 1-3 (Table 11)
[4] = tested on: Candida albicans (strain 14053 ATCC); assay: Model of the candidiasis sepsis of mice, kidney burden; format: in vivo; settings: for Candida albicans burden in kidneys (Mean): day 5, n=3 mice
Protocol: In experiments used female mice of hybrids of first generation (C57B1/6xDBA/2)F1 (B6D2F1), weight 18-20 g., received from the Central farm “Kryukovo” of Russian Academies of Medical Science (RAMS). Animals were maintained in Institute' vivarium in plastic cages (with hardwood bedding in environmentally controlled room: 24±1° C., 12/12 hours light/dark cycle) on a standard diet of bricketed forages with an easy approach to drinking water (ad libitum). After 2-week quarantine healthy animals were used in experimental work.
A preparation of comparison was amphotericin B (pure). Solutions of tested preparations prepared ex tempore by the technique specified by the customer.
Animals were housed on 3 mice and infected intravenously with culture Candida albicans in a doze 1.0 million CFU/mouse in volume of 0.1 ml. It is necessary to note, that doze Candida albicans remained a constant in all experiments. In 30 minutes after infection to mice carried out the first intravenous introduction of tested preparations in corresponding dozes in volume of 0.2 ml (with a speed of 0.2 ml/30 second).
Experiment has been planned in such a manner that in each experiment one doze (both for amphotericin B was used, and for tested preparations), each doze entered daily within four days, since day of infection (0, 1, 2 and 3 days). At each experiment there was a group untreated, infected with Candida albicans animals. Also there was a group “placebo”, intact (not infected) animals, which intravenously (in the same volume as medical preparations) injected 0.2 ml of solvent—phosphatic buffer +5% glucose (1:1).
On the post challenge 5th day of experiment, mice were weighed and euthanized (killed) by a cervical dislocation. Then, in sterile conditions, Candida albicans burdens were determined by viable counting of homogenates from the kidneys. The kidneys, which were removed aseptically and weighed, pounded in porcelain mortars with sterile corundum, did dilutions of the received suspensions and sowed on Petri dishes with agar Saburo, incubated for 48 hours at temperature 35° C., then counted up developed colonies Candida albicans and recalculated their quantity on 1 g of kidney' tissue. The first dilution was 10^−1. Zero result at this cultivation accepted for 5 CFU/g.
For the basic criterion of an assessment of the investigated preparations the maximal effect of the Amphotricin B was accepted (effective dose, ED).
For significant accepted distinctions of average at P≦0.05 at comparison by Student t-criterion.

Solubility in 5% glucose = format: physicochemical
[5] = dose 0.08 mg/kg/d i.v. for four days
[6] = dose 0.16 mg/kg/d i.v. for four days
[7] = dose 0.31 mg/kg/d i.v. for four days
[8] = dose 0.62 mg/kg/d i.v. for four days
[9] = dose 1.25 mg/kg/d i.v. for four days
[10] = dose 2.5 mg/kg/d i.v. for four days

Structure (SMILES)	MIC Aspergillus niger ATCC 16404 [1]	MIC Fusarium oxysporum VKM F-140 [2] [µg/mL]	MIC50 [3] [µg/mL]	Haemolysis of erythrocytes, Mean ± SE (erythrocytes) [%]	Candida albicans burden in kidneys (Mean) [4, 5] [CFU/g]	Candida albicans burden in kidneys (Mean) [4, 6] [CFU/g]	Candida albicans burden in kidneys (Mean) [4, 7] [CFU/g]	Candida albicans burden in kidneys (Mean) [4, 8] [CFU/g]	Candida albicans burden in kidneys (Mean) [4, 9] [CFU/g]	Candida albicans burden in kidneys (Mean) [4, 10] [CFU/g]	other results
CC1C=CC=CC=CC=CC=CC=CC=CC(OC2OC(C)C(O)C(N)C2O)CC2OC(O)(CC(O)C(O)CCC(O)CC(O)CC(O)CC(=O)OC(C)C(C)C1O)CC(O)C2C (stereo not shown) [Compound 1]	1 µg/mL and 2 µg/mL	2 (≈ 2.24 µM)	0.07 (≈ 0.0783 µM)								MIC Aspergillus niger ATCC 16404 ([1]; listed as Comp 1): 2 µg/mL (≈ 2.24 µM)
C[C@@H]1[C@H](O)[C@@H](C)/C=C/C=C/C=C/C=C/C=C/C=C/C=C/[C@H](O[C@@H]2O[C@H](C)[C@@H](O)[C@H](N)[C@@H]2O)C[C@@H]2O[C@](O)(C[C@@H](O)C[C@@H](O)[C@H](O)CC[C@@H](O)C[C@@H](O)CC(=O)O[C@H]1C)C[C@H](O)[C@H]2C(=O)O [Amphotericin B, reference compound]	1 µg/mL (≈ 1.08 µM)	4 (≈ 4.33 µM)	0.12 (≈ 0.13 µM)	39.7 ± 1.2	105000	85667	34667	10667	1667		Haemolysis of human blood erythrocytes, MEAN ± SE (human blood erythrocytes; 2 μg/mL): 6.1 ± 1.0%; Haemolysis of human blood erythrocytes (human blood erythrocytes; 2 μg/mL): 4.4% and 5.9% and 8.0%; Haemolysis of human blood erythrocytes, MEAN ± SE (human blood erythrocytes; 5 μg/mL): 30.3 ± 0.6%; Haemolysis of human blood erythrocytes (human blood erythrocytes; 5 μg/mL): 30% and 29.5% and 31.5%; Haemolysis of erythrocytes (erythrocytes; listed as Amp B): 39% and 38% and 42%; dose of maximal activity as % from MTD ([4]; 1.25 mg/kg/d): ≈ 62%; dose of maximal activity (effective dose, ED) ([4]; highest studied dose, criterion of activity): 1.25 mg/kg/day; solubility in 5% glucose (Solubility in 5% glucose): < 1000 µg/mL
CC1C=CC=CC=CC=CC=CC=CC=CC(OC2OC(C)C(O)C(N)C2O)CC2OC(O)(CC(O)C(O)CCC(O)CC(O)CC(O)CC(=O)OC(C)C(C)C1O)CC(O)C2C.NC(CCC(=O)O)C(=O)O [Compound 29, Compound 1 L-glutamate]	2 µg/mL	2				102667		12500	2557	133	Candida albicans burden in kidneys (Mean) ([4]; dose 5 mg/kg/d i.v. for four days, zero result accepted for 5 CFU/g): 5 CFU/g
CC1O[C@@H](O[C@H]2/C=C/C=C/C=C/C=C/C=C/C=C/C=C/[C@H](C)[C@@H](O)[C@@H](C)[C@H](C)OC(=O)C[C@H](O)C[C@H](O)C[C@H](O)CC[C@@H](O)[C@H](O)C[C@]3(O)C[C@H](O)[C@@H](C)[C@H](C2)O3)[C@H](O)C(NC(=O)[C@@H](N)CCCCN)[C@@H]1O (stereo partly drawn) [Compound 51, N-L-Lysyl-Compound 1]	1 µg/mL (≈ 0.978 µM)	2 (≈ 1.96 µM)			56667		22667	17833	9400	5	
CC1C=CC=CC=CC=CC=CC=CC=CC(OC2OC(C)C(O)C(N)C2O)CC2OC(O)(CC(O)C(O)CCC(O)CC(O)CC(O)CC(=O)OC(C)C(C)C1O)CC(O)C2C(=O)NCCCN(C)C (stereo not shown) [Compound 11, S44HP DMAP Amide]	2 µg/mL (≈ 1.98 µM)	2 (≈ 1.98 µM)	0.12 (≈ 0.119 µM)	3.2 ± 0.1							Haemolysis of erythrocytes (erythrocytes): 3% and 3.4% and 3.3%
